Among the data in paper PMC8252049 (Chemmedchem, 2021) are IC50 values, retold here.

In data set [1] the target is rat liver TrxR2 (mitochondrial thioredoxin reductase) (Rattus norvegicus, UniProt Q9Z0J5). Put plainly: DTNB reduction, absorbance […] nm. The format is biochemical.
Data set [2] concerns the target T1, rat liver TrxR1 (cytosolic thioredoxin reductase) (Rattus norvegicus, UniProt O89049).
T1 sequence (O89049 1-499): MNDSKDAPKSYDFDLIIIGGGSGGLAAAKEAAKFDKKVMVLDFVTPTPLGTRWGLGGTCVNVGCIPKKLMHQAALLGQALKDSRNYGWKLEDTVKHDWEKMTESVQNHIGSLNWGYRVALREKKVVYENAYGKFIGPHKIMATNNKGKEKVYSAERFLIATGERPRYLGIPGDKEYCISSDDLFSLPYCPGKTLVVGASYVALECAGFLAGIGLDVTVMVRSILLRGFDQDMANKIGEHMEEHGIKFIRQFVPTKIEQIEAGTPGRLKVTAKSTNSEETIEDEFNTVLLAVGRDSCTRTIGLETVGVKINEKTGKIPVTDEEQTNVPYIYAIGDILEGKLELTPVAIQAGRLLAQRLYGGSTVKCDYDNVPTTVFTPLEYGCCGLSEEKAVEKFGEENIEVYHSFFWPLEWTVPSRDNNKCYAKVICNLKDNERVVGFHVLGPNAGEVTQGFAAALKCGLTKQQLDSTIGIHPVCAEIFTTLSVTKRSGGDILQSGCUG
Put plainly: DTNB reduction, absorbance […] nm. The format is biochemical.

rat liver TrxR2 (mitochondrial thioredoxin reductase), sequence (Q9Z0J5 37-526): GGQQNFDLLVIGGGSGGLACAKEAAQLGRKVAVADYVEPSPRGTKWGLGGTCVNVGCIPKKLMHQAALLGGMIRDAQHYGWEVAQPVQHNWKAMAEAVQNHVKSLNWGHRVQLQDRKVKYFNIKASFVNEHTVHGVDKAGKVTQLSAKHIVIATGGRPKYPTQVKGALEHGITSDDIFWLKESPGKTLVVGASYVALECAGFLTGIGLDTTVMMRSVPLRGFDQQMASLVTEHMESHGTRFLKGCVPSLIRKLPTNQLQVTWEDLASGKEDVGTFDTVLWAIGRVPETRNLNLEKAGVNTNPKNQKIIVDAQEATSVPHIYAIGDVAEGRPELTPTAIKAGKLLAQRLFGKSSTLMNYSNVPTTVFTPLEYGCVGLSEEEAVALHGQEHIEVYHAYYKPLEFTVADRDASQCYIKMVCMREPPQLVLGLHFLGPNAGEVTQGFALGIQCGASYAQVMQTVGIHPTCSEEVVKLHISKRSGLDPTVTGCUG

A word on the IC50: it is the midpoint of a concentration-inhibition curve. For the compound `[NH2][Pt]([NH2])([Cl])[Cl]` [cisplatin], the IC50 in data set [1] was found to be 405 nM; in data set [2] it was 22.5 nM. trans-[PtBr2(NHBz2)(PPh3)] [compound 2] gave an IC50 in data set [2] of 2.59 nM. Turning to “trans-[PtBr2(NHBzBu)(PPh3)] [compound 1]”, in data set [2], the IC50 is 2.27 nM.
